Results published in US20200323962A1, “LIPOPHILIC PEPTIDE PRODRUGS” (YISSUM RESEARCH DEVELOPMENT COMPANY OF THE HEBREW …, priority 2017, published 2020).
Read-outs that look alike come from different tables or passages of the source. Marks after values point to notes of the source that are not given here. *1 amine or outer side, *2 acyl side, *3 side chain or, on linkers, in order; H or OH if unused. Where a SMILES comes first, the peptide text is derived from it. Bridges are numbered along the chain shown (N, C = ends). Where no end group is shown, it is not given here. [ ]: non-standard residue; d: D form. Arg(ω,ω'-(C6H13OCO)2) = CCCCCCOC(=O)N=C(NCCC[C@H](N)C(=O)O)NC(=O)OCCCCCC; Phe(Nα-(CH2)3CO) = O=C([C@H](Cc1ccccc1)N(CCCC(=O)[*:3])[*:1])[*:2]; N(2-aminoethyl)Phe = O=C([C@H](Cc1ccccc1)N(CCN[*:3])[*:1])[*:2]

Columns and labels:
[1] = for Mass retention / Permeability, Mean / Permeability, replicate 1 / Permeability, replicate 2 / Permeability, replicate 3: PAMPA, pH 7.4
Excerpt: The Parallel Artificial Membrane Permeability Assay (PAMPA) is used as an in vitro model of passive, transcellular permeation. […] This assay also allows evaluation of permeability over a large pH range, which is valuable for a preliminary understanding of how orally delivered compounds might be absorbed across the entire gastrointestinal tract. […] Depending upon the types of lipids used and other experimental conditions, PAMPA may be designed to model absorption in gastrointestinal tract (PAMPA-GIT), blood-brain barrier penetration (PAMPA-BBB) or skin penetration (Skin PAMPA). All steps of the PAMPA were carried out according to pION Inc. PAMPA Explorer™ Manual. The main principle of the assay is the incubation of compound in donor chamber (a well in Donor Plate) with aqueous buffer, which is separated from acceptor chamber (a well in Acceptor Plate) with another buffer by a phospholipid or hydrocarbon membrane fixed on a filter support. After the test, concentrations in the corresponding donor and acceptor wells are measured and permeability is calculated. GIT model was simulated using GIT-0 phospholipid mix. […] All compounds were tested in triplicates. Prisma HT buffer (pH 7.4) containing 50 μM test compounds and 0.5% DMSO were added into the Donor Plate wells. Acceptor Sink buffer was added into each well of the acceptor plate. Incubation was done at room temperature for 4 hours without stirring. […] Compounds with low UV-Vis signal were detected by LC-MS/MS method. Then the apparent permeability coefficient was calculated.

[2] = pH 7.4, LogD
Description: Log D. Determination of distribution coefficients were performed as follows:
Incubations were carried out in Eppendorf-type polypropylene microtubes in triplicates. […] Phase separation was assured by centrifugation for 2 min at 6000 rpm. The octanol phase was diluted 100-fold with 40% acetonitrile, and aqueous phase was analyzed without dilution. The samples (both phases) were analyzed using HPLC system coupled with tandem mass spectrometer.

[3] = for Papp A→B: Caco-2, Papp (AB); for Papp B→A: Caco-2, Papp (BA)
in vitro [4] = conditions: human; for efflux ratio at 90 min, 10 µM: Caco-2, pH 7.4, Net efflux (quotient of Papp (BA) to Papp (AB)); for Papp A→B at 90 min, 10 μM: Caco-2, pH 7.4, Papp (AB); for Papp B→A at 90 min, 10 μM: Caco-2, pH 7.4, Papp (BA)
human αvβ5-integrin = target: T1, human αvβ5-integrin (Homo sapiens, UniProt P06756+P18084); experiment: Integrin binding assay (solid-phase), αvβ5
T1 construct: purchased Millipore
Description: (1) 5.0 μg/mL; human vitronectin, Millipore.
(2) 3.0 μg/mL, human αvβ5-integrin, Millipore.

human αvβ6-Integrin = target: T2, human αvβ6-Integrin (Homo sapiens, UniProt P06756+P18564, DEL708-788); experiment: Integrin binding assay (solid-phase), αvβ6
T2 construct: purchased R&D
T2 sequence (P06756 31-992 limits assumed, stated change not applied): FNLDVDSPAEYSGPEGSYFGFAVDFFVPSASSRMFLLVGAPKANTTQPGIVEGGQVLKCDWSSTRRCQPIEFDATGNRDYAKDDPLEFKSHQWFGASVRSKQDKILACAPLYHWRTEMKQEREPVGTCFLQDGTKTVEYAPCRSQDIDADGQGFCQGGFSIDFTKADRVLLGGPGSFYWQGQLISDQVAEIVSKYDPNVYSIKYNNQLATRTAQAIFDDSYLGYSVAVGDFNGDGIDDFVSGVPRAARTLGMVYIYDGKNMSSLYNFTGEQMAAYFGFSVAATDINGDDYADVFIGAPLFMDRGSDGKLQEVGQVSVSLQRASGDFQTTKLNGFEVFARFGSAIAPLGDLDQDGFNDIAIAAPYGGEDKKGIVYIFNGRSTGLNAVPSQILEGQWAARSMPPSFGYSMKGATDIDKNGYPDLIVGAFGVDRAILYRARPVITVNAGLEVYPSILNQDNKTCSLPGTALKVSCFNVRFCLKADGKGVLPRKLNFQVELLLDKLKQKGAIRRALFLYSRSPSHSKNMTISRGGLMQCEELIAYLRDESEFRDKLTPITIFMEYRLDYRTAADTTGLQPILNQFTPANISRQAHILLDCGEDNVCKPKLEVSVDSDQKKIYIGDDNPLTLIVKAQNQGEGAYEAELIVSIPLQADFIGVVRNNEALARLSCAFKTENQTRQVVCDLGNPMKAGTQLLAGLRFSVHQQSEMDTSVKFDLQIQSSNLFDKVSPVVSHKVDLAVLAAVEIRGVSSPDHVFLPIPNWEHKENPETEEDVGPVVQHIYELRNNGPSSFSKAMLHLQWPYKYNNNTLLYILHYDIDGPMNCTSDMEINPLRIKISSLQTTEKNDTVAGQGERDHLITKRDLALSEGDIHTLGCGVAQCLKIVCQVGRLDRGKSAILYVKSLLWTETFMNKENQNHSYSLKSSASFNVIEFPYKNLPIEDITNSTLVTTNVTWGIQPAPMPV
T2 sequence (P18564 22-707 limits assumed, stated change not applied): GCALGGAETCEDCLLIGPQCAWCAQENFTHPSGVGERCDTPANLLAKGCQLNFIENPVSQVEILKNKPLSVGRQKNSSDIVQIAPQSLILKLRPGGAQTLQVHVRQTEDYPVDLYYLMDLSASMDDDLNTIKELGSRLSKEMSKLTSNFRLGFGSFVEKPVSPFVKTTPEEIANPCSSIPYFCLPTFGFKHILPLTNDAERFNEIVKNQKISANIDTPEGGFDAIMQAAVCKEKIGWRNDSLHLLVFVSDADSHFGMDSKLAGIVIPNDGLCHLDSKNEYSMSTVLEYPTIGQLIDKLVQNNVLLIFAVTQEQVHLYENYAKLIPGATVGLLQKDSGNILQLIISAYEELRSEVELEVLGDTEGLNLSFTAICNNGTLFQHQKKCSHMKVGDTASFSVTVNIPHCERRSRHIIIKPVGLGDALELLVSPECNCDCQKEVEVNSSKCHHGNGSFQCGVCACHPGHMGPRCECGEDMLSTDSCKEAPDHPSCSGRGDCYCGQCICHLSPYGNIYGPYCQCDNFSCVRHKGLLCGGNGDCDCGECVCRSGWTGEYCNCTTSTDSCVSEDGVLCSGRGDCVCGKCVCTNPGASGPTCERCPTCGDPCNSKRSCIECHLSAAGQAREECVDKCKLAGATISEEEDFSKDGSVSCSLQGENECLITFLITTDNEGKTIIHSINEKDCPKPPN
Description: (1) 0.4 μg/mL; LAP (TGF-3), R&D.
(2) 0.5 μg/mL, human αvβ6-Integrin, R&D.

human α5β1-integrin = human α5β1-integrin (Homo sapiens, UniProt P05556+P08648, DEL729-798); experiment: biochemical
Chain of human α5β1-integrin (P08648 42-995 limits assumed, stated change not applied): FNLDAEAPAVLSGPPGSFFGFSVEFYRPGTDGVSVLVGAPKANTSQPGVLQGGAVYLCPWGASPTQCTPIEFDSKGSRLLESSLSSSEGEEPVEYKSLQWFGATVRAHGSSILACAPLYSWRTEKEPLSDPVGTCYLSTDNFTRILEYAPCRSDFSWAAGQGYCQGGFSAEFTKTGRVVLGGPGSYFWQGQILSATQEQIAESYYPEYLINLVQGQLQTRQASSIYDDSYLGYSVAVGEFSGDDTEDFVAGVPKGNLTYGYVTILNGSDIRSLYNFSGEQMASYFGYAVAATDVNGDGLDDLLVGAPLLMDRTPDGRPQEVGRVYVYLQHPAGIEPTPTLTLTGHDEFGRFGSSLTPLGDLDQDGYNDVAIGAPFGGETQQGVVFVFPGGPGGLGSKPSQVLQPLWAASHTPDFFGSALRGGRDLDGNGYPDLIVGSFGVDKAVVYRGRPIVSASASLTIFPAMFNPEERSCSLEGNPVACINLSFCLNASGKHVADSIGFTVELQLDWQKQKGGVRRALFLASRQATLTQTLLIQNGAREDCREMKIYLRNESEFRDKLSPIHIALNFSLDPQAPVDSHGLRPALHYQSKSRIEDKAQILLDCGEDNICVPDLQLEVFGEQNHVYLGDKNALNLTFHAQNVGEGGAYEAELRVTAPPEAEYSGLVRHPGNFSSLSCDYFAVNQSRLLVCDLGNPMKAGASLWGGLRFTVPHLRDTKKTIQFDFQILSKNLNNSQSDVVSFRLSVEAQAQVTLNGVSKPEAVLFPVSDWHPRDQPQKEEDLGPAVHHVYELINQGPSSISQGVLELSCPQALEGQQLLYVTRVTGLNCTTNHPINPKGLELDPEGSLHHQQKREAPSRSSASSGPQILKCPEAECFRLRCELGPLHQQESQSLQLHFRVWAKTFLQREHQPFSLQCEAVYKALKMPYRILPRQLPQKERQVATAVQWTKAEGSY
Chain of human α5β1-integrin (P05556 21-728 limits assumed, stated change not applied): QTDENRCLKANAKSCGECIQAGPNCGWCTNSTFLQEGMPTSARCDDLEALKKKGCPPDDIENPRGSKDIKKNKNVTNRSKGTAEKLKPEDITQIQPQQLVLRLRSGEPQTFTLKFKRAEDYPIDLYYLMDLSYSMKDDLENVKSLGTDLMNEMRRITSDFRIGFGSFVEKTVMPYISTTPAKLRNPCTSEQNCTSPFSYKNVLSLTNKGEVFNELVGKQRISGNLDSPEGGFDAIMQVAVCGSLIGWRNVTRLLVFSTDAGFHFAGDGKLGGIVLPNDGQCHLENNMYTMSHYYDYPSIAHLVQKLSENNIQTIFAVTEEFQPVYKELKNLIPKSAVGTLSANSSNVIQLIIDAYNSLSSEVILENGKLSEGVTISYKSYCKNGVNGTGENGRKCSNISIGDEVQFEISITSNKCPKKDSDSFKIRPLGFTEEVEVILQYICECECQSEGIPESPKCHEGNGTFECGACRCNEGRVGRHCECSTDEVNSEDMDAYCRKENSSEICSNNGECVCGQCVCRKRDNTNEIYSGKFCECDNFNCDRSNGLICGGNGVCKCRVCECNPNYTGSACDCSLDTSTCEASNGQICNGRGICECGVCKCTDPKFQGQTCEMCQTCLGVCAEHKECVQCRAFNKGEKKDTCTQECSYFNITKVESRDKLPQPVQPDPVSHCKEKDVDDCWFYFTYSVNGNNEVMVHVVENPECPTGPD

Caco-2 cells = experiment: Caco-2 permeability study (Examples 1-4); conditions: for Caco-2 permeability: qualitative
Description: (§1) The culture growth medium consisted of DMEM supplemented with 10% heat-inactivated FBS, 1% MEM-NEAA, 2 mM 1-glutamine, 1 mM sodium pyruvate, 50,000 units Penicillin G Sodium and 50 mg Streptomycin Sulfate (Biological Industries). The medium was replaced every other day.
(§2) Cells (passage 55-60) were seeded at density of 25×10^5 cells/cm^2 on untreated culture inserts of polycarbonate membrane with 0.4 μm pores and surface area of 1.1 cm^2. Culture inserts containing Caco-2 monolayer were placed in 12 mm transwell plates (Corning). Culture medium was replaced every other day. Transepithelial Electrical Resistance (TEER) values were measured by Millicell ERS-2 System (Millipore) a week after seeding up to experiment day (21-23 days) to ensure proliferation and differentiation of the cells. When the cells were fully differentiated and TEER values became stable (200-500 Ω·cm^2). The TEER values were compared to control inserts containing only the medium.
(§3) The experiment was initiated by replacing the medium from both sides by apical (600 μl) and basolateral (1500 μl) buffers, both warmed to 37° C. The Cells were incubated with the buffers solutions for 30 min at 37° C. on a shaker (100 cycles/min). […] 50 μl samples were taken from the apical side immediately at the beginning of the experiment, resulting in 550 μl apical volume during the experiment.
(§4) Permeability Coefficient (Papp) for each compound was calculated from the linear plot of drug accumulated versus time, using the following equation:
(§5) Where dq/dt is steady state appearance rate of the compound on the receiver side, C0 is the initial concentration of the drug on the donor side, and A is the exposed tissue surface area (1.1 cm^2).
(§6) Transport studies were performed through the Caco-2 monolayer mounted in an Ussing-type chamber set-up with continuous trans-epithelial electrical resistance (TEER) measurements to assure TEER between 800 and 1200 Ω*cm^2. HBSS supplemented with 10 mM IVIES and adjusted to pH 6.5 were used as transport medium in the donor compartment and pH 7.4 in the acceptor compartment. The donor solution contained the test compound.
(§7) Permeability mechanism of compounds is studied by evaluating the Papp of a compound from the apical to the basolateral (A-to-B) membrane and its Papp from the basolateral to the apical membrane (B-to-A). The A-to-B assay simulates passive and transporter-mediated permeability. The B-to-A assay is essential complementary experiment indicative of the activity of P-gp. The ratio of the A-to-B and B-to A Papps (efflux ratio) is calculated to determine the permeability mechanism.

in vitro [5] = conditions: human, Caco-2, Papp AB
Description: as §1, §2, §3, §4, §5, §6, §7

[6] = Caco-2 permeability study (Examples 1-4)
Description: as §1, §2, §3, §4, §5, §6, §7

somatostatin receptors = conditions: SSTR subtypes; cited from earlier work
[7] = test system: amylase and lipase release from the pancreas; conditions: bombesin- and caerulein-induced; cited from earlier work
[8] = pH 7.4 (mean in parentheses below reported bound)

CCCCCCOC(=O)N=C(N)NCCC[C@@H]1NC(=O)[C@@H](C(C)C)N(C)C(=O)[C@H](C)N(C)C(=O)[C@H](C)NC(=O)[C@H](CC(=O)OC)NC(=O)CNC1=O [#29P-Hoc]
PAMPA permeability [1]: low permeability | Mass retention [1]: 10% | Permeability, Mean [1]: <−7 Log10[10^−6 cm/s] | Permeability, replicate 1 [1]: <−7 Log10[10^−6 cm/s] | Permeability, replicate 2 [1]: <−7 Log10[10^−6 cm/s] | Permeability, replicate 3 [1]: <−7 Log10[10^−6 cm/s]

CCCCCCOC(=O)N=C(NCCC[C@@H]1NC(=O)[C@H](Cc2ccccc2)NC(=O)[C@@H]2CCCN2C(=O)[C@@H]2CCCN2C(=O)[C@H](CC(C)C)NC(=O)[C@H](C)NC(=O)[C@H](CC(C)C)NC(=O)[C@H](CC(=O)OC)NC(=O)CNC1=O)NC(=O)OCCCCCC [AR372] (cyclo(ALPPF[Arg(ω,ω'-(C6H13OCO)2)]GD(OMe)L))
logD ([2]; pH 7.4 (mean / reported value)): > 4.5 | logD [2, 8]: 4.85 | logD ([2]; pH 7.4 (single replicate)): 4.8 | Papp A→B ([3]; Mean): < 0.1 nm/s | Papp A→B ([3]; replicate 1): < 0.1 nm/s | Papp A→B ([3]; replicate 2): < 0.1 nm/s | Papp A→B ([3]; replicate 3): < 0.1 nm/s | Papp B→A ([3]; Mean): 4 nm/s | Papp B→A ([3]; replicate 1): 5 nm/s | Papp B→A ([3]; replicate 2): 5 nm/s | Papp B→A ([3]; replicate 3): 3 nm/s | PAMPA permeability [1]: >−5 to >−6 | Mass retention [1]: 80% | Permeability, Mean [1]: −5.9 Log10[10^−6 cm/s] | Permeability, replicate 1 [1]: −6.2 Log10[10^−6 cm/s] | Permeability, replicate 2 [1]: −5.7 Log10[10^−6 cm/s] | Permeability, replicate 3 [1]: −5.7 Log10[10^−6 cm/s]

CCCCCCOC(=O)N=C(NCCC[C@@H]1NC(=O)[C@H](C(C)C)N(C)C(=O)[C@@H](Cc2ccccc2)NC(=O)[C@H](CC(=O)OC)NC(=O)CNC1=O)NC(=O)OCCCCCC [Cil.-P, c(f*VR(Hoc)2 GD)]
PAMPA permeability [1]: does not enhance the permeability | Mass retention [1]: 36% | Permeability, Mean [1]: −6.5 Log10[10^−6 cm/s] | Permeability, replicate 1 [1]: −8.1 Log10[10^−6 cm/s] | Permeability, replicate 2 [1]: −6.6 Log10[10^−6 cm/s] | Permeability, replicate 3 [1]: −6.5 Log10[10^−6 cm/s]

CC(C)C[C@@H]1NC(=O)CNC(=O)[C@@H]2CCCN2C(=O)[C@@H]2CCCN2C(=O)[C@H](CC(C)C)NC(=O)[C@H](CC(=O)O)NC(=O)CNC(=O)[C@H](CCCNC(=N)N)NC1=O [FRX068] (cyclo(RGDLPPGL))
logD ([2]; pH 7.4 (mean / reported value)): < -1 | logD [2, 8]: -1.49 | Papp A→B ([3]; Mean): 3 nm/s | Papp A→B ([3]; replicate 1): 3 nm/s | Papp A→B ([3]; replicate 2): 2 nm/s | Papp A→B ([3]; replicate 3): 2 nm/s | Papp B→A ([3]; Mean): 3 nm/s | Papp B→A ([3]; replicate 1): 3 nm/s | Papp B→A ([3]; replicate 2): 3 nm/s | Papp B→A ([3]; replicate 3): 3 nm/s | efflux ratio at 90 min, 10 µM (in vitro [4]): 1.1 | Mass retention [1]: 2% | Permeability, Mean [1]: <−7 Log10[10^−6 cm/s] | Permeability, replicate 1 [1]: <−7 Log10[10^−6 cm/s] | Permeability, replicate 2 [1]: <−7 Log10[10^−6 cm/s] | Permeability, replicate 3 [1]: <−7 Log10[10^−6 cm/s]

CC(C)C[C@@H]1NC(=O)[C@H](CC(=O)O)NC(=O)CNC(=O)[C@H](CCCNC(=N)N)NC(=O)[C@H](Cc2ccccc2)NC(=O)[C@@H]2CCCN2C(=O)[C@@H]2CCCN2C(=O)[C@H](CC(C)C)NC(=O)[C@H](C)NC1=O [OM1186] (cyclo(RGDLALPPF))
logD ([2]; pH 7.4 (mean / reported value)): -0.19 | Papp A→B ([3]; Mean): < 3 nm/s | Papp A→B ([3]; replicate 1): < 6 nm/s | Papp A→B ([3]; replicate 2): < 3 nm/s | Papp B→A ([3]; Mean): 2 nm/s | Papp B→A ([3]; replicate 1): 1 nm/s | Papp B→A ([3]; replicate 2): 2 nm/s | Papp B→A ([3]; replicate 3): 3 nm/s | efflux ratio at 90 min, 10 µM (in vitro [4]): 0.6 | Mass retention [1]: 13% | Permeability, Mean [1]: <−7 Log10[10^−6 cm/s] | Permeability, replicate 1 [1]: <−7 Log10[10^−6 cm/s] | Permeability, replicate 2 [1]: <−7 Log10[10^−6 cm/s] | Permeability, replicate 3 [1]: <−7 Log10[10^−6 cm/s]

CC(C)NCC(O)COc1cccc2ccccc12 (stereo not drawn) [Propranolol]
efflux ratio at 90 min, 10 µM (in vitro [4]): 0.8 | Papp A→B at 90 min, 10 μM (in vitro [4]; Mean): 181 nm/s | Papp A→B at 90 min, 10 μM (in vitro [4]; replicate 1): 149 nm/s | Papp A→B at 90 min, 10 μM (in vitro [4]; replicate 2): 241 nm/s | Papp A→B at 90 min, 10 μM (in vitro [4]; replicate 3): 153 nm/s | Papp B→A at 90 min, 10 μM (in vitro [4]; Mean): 153 nm/s | Papp B→A at 90 min, 10 μM (in vitro [4]; replicate 2): 153 nm/s | Papp B→A at 90 min, 10 μM (in vitro [4]; replicate 3): 170 nm/s

C=C[C@H]1C[N@@]2CC[C@H]1C[C@@H]2[C@@H](O)c1ccnc2ccc(OC)cc12 [Quinidine, reference compound]
Mass retention ([1]; 4 h, 50 μM): 56% | Permeability, Mean [1]: −4.5* Log10[10^−6 cm/s] | Permeability, replicate 1 [1]: −4.6 Log10[10^−6 cm/s] | Permeability, replicate 2 [1]: −4.5 Log10[10^−6 cm/s] | Permeability, replicate 3 [1]: −4.5 Log10[10^−6 cm/s]

CNC(=C[N+](=O)[O-])NCCSCc1ccc(CN(C)C)o1 [Ranitidine, reference compound]
Mass retention ([1]; 4 h, 50 μM): 21% | Permeability, Mean [1]: <−7* Log10[10^−6 cm/s] | Permeability, replicate 1 [1]: <−7 Log10[10^−6 cm/s] | Permeability, replicate 2 [1]: <−7 Log10[10^−6 cm/s] | Permeability, replicate 3 [1]: <−7 Log10[10^−6 cm/s]

C[C@@H]1NC(=O)[C@H](C)N(C)C(=O)[C@H](C)NC(=O)[C@H](CC(=O)O)N(C)C(=O)CNC(=O)[C@@H](CCCNC(=N)N)NC1=O [compound 17, c(rG*DA*AA)]
IC50 (human αvβ5-integrin): > 5 µM | IC50 (human αvβ6-Integrin): > 10 µM | IC50 (human α5β1-integrin): > 10 µM | Caco-2 permeability (Caco-2 cells): significant lower permeability

C[C@@H]1NC(=O)[C@H](CC(=O)O)NC(=O)CNC(=O)[C@@H](CCCNC(=N)N)NC(=O)[C@H](C)N(C)C(=O)[C@H](C)N(C)C1=O [compound 23, c(rGDA*A*A)]
Papp AB (Caco-2 cells; Table 3, n = 3): 0.61 ± 0.09 cm/s × 10^6 | Papp BA (Caco-2 cells; Table 3, n = 3): 1.34 ± 0.03 cm/s × 10^6 | Caco-2 permeability (Caco-2 cells): significant lower permeability

C[C@@H]1NC(=O)[C@H](CC(=O)O)NC(=O)CNC(=O)[C@@H](CCCNC(=N)N)N(C)C(=O)[C@H](Cc2ccccc2)NC(=O)[C@H](C)N(C)C1=O [compound 33, c(*rGDA*AF)]
IC50 (human αvβ6-Integrin; Table 1, read-out: αvβ6, IC50): 0.025 ± 0.003 µM

COCCc1ccc(OCC(O)CNC(C)C)cc1 (stereo not drawn) [metoprolol]
Papp A→B at 150 min (in vitro [5]): 18.9 ± 1.1 nm/s

CCCCCCOC(=O)N=C(NCCC[C@@H]1NC(=O)[C@@H](C(C)C)N(C)C(=O)[C@H](C)N(C)C(=O)[C@H](C)NC(=O)[C@H](CC(=O)OC)NC(=O)CNC1=O)NC(=O)OCCCCCC [peptide 29P, c(*vR(Hoc)2GD(OMe)A*A)]
efflux ratio ([6]; Caco-2): 13 | Papp A→B ([6]; Caco-2, Caco-2 Papp A-to-B, A-to-B, text values (FIGS. 4, 5, 7, 17-20), unit inferred): 8 nm/s | Papp B→A ([6]; Caco-2, Caco-2 Papp B-to-A, B-to-A, text values (FIGS. 5, 18, 20), unit inferred): 106 nm/s | Papp A→B ([6]; Caco-2, Papp AB, Table 3, n = 3): 8.2 ± 1.3 nm/s | Papp B→A ([6]; Caco-2, Papp BA, Table 3, n = 3): 107 ± 21.4 nm/s

PTR-3046: backbone cyclic somatostatin analog (SEQ ID NO: 28) ([N(2-aminoethyl)Phe]Y[dW]KV[Phe(Nα-(CH2)3CO)]T-NH2; bridge 1-6; also: backbone cyclisation between building units)
somatostatin receptor selectivity (somatostatin receptors): selective toward the SSTR5 | inhibition of amylase and lipase release [7]: inhibits bombesin- and caerulein-induced amylase and lipase release from the pancreas
